Results published in patent US20260207575A1, “P[…] THE TREATMENT OF JUVENILE HUNTINGTON DISEASE” (Prilenia Neurotherapeutics Ltd., priority 2022, published 2026).
Where two headings read alike, the source gives them in different places.

Legend:
[1] = tested on: HD patients with CAG repeat length >=50; details: for cUHDRS LS Mean change vs placebo: 45 mg bid (n=1) vs placebo (n=4); for cUHDRS LS Mean change from baseline: n=1
Procedure: (§1) All patients began treatment with a 2-week titration period (45 mg once a day) followed by full-dose treatment for 63-78 weeks.
(§2) Efficacy was evaluated using the following clinical endpoints: Change from Baseline to Week 78 in composite UHDRS (cUHDRS) total score, Total Functional Capacity (UHDRS-TFC) score and Stroop Word Reading (SWR) testing for cognitive assessment.
The composite Unified Huntington's Disease Rating Scale (cUHDRS) is a clinical scale used for evaluating the severity and progression of Huntington's disease (HD).
The cUHDRS is a composite scale assessing overall progression of independent key aspects of HD: functional ability, motor symptoms, and cognitive function. cUHDRS comprises four subscales: Total Functional Capacity (TFC), Total Motor Score (TMS), and 2 cognitive measures: the Symbol-Digit Modality Test (SDMT), and Stroop Word Reading (SWR) Test.
The cUHDRS score is a validated scale used for tracking disease progression and evaluating treatment effectiveness in subjects with HD. Higher scores on cUHDRS indicates better overall disease state. By measuring multiple domains, the cUHDRS provides a global and comprehensive assessment of the disease stage.

[2] = tested on: HD patients with CAG repeat length >=50; details: for TFC LS Mean change vs placebo: 45 mg bid (n=1) vs placebo (n=4); for TFC LS Mean change from baseline: n=1
Procedure: as §1, §2
The UHDRS-TFC score is a commonly used and regulatory-accepted clinical scale used for assessing the functional capacity of subjects with HD and monitoring the disease's progression and severity over time. This score ranges from 0 to 13 and higher scores indicate better functional capacity. A score of 13 means that the individual is entirely functional with no indications of impairment, while a score of 0 indicates complete dependence on others for daily activities.

[3] = tested on: HD patients with CAG repeat length >=50; details: 45 mg bid; up to 78 weeks; CAG >=50
Procedure: as §1, §2

[4] = tested on: dopamine D2/D3 receptors; details: low-affinity binding; cited from earlier work
[5] = 45 mg bid, up to 78 weeks, CAG >=50
[6] = Week 26, 45 mg bid, CAG >=50, positive change = improvement

CCCN1CCC(c2cccc(S(C)(=O)=O)c2)CC1 [Pridopidine, 4-[3-(methylsulfonyl)phenyl]-1-propyl-piperidine]
effect on cUHDRS / disease progression compared to placebo (in words) [1, 5]: marked improvement
cUHDRS LS Mean change vs placebo ([1]; Week 26): 2.52 points
cUHDRS LS Mean change from baseline [1, 6]: 1.79
cUHDRS LS Mean change vs placebo ([1]; Week 39): 2.66 points
cUHDRS LS Mean change from baseline ([1]; Week 39, 45 mg bid, CAG >=50): 1.83
cUHDRS LS Mean change vs placebo ([1]; Week 52): 2.49 points
cUHDRS LS Mean change from baseline ([1]; Week 52, 45 mg bid, CAG >=50): 1.67
cUHDRS LS Mean change vs placebo ([1]; Week 65): 2.32 points
cUHDRS LS Mean change from baseline ([1]; Week 65, 45 mg bid, CAG >=50): 1.41
cUHDRS LS Mean change vs placebo ([1]; Week 78): 2.52 points
cUHDRS LS Mean change from baseline ([1]; Week 78, 45 mg bid, CAG >=50): 1.42
effect on TFC / functional capacity compared to placebo (in words) [2, 5]: marked improvement
TFC LS Mean change vs placebo ([2]; Week 26): 2.99 points
TFC LS Mean change from baseline [2, 6]: 2.96
TFC LS Mean change vs placebo ([2]; Week 39): 3.06 points
TFC LS Mean change from baseline ([2]; Week 39, 45 mg bid, CAG >=50): 2.96
TFC LS Mean change vs placebo ([2]; Week 52): 3.00 points
TFC LS Mean change from baseline ([2]; Week 52, 45 mg bid, CAG >=50): 2.91
TFC LS Mean change vs placebo ([2]; Week 65): 2.90 points
TFC LS Mean change from baseline ([2]; Week 65, 45 mg bid, CAG >=50): 2.61
TFC LS Mean change vs placebo ([2]; Week 78): 3.45 points
TFC LS Mean change from baseline ([2]; Week 78, 45 mg bid, CAG >=50): 2.93
effect on SWR / cognitive function compared to placebo (in words) [3]: marked improvement
binding affinity to dopamine D2/D3 receptors [4]: in the micromolar range
